Molecular target: human PAD4 (hPAD4) (Homo sapiens (Human), UniProt Q9UM07)
Experiment: RFMS Human PAD4 Functional Assay 1
Type: biochemical
Conditions: RFMS assay 1; 5 nM hPAD4, 250 μM BAEE substrate, 50 μM calcium, 37° C.
How it was run: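 Citrullination product read by RapidFire triple-quad MRM against a modified-citrulline internal standard, after TCA stop and 30 min phenyl glyoxal step at 37 °C. Reaction: 250 μM BAEE, 5 nM human PAD4, 90 min at 37 °C, pH 7.5 HEPES buffer with 50 μM calcium and 5 μM TPEN, following 30 min compound–enzyme preincubation (max 50 μM).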

human PAD4 (hPAD4), sequence (Q9UM07 whole entry): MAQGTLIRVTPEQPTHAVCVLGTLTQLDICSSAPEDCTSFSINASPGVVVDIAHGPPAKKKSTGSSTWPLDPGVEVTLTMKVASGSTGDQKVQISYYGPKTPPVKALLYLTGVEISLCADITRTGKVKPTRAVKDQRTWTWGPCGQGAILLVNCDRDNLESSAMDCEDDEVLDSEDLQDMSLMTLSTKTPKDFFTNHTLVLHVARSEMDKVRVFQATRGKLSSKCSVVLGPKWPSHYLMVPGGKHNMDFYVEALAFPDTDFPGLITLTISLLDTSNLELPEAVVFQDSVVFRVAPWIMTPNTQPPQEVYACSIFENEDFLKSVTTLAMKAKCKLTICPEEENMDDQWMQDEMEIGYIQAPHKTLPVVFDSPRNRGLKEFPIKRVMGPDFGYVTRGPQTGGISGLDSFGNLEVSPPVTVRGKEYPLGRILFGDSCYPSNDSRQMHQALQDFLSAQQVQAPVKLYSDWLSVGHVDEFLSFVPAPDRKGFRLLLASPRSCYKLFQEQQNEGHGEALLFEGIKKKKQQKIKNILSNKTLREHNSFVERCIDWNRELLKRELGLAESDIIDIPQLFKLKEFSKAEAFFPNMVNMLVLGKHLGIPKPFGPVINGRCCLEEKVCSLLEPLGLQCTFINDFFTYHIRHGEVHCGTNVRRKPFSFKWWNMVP

Compound: Cc1c(-c2cc3ccc(N4CCC(O)CC4)nc3n2CC2CC2)nn2cc(C(=O)N3CC4CCC3[C@@H]4N)ccc12 (stereo partly drawn) [Example 77, ((7R)-7-Amino-2-azabicyclo[2.2.1]heptan-2-yl)(2-(1-(cyclopropylmethyl)-6-(4-hydroxypiperidin-1-yl)-1H-pyrrolo[2,3-b]pyridin-2-yl)-3-methylpyrazolo[1,5-a]pyridin-6-yl)methanone]
- IC50: 77 nM

Compound: Cc1c(-c2cc3ccc(N4CCC[C@@H](O)C4)nc3n2CC2CC2)nn2cc(C(=O)N3CC4CCC3[C@@H]4N)ccc12 (stereo partly drawn) [Example 78, ((7R)-7-Amino-2-azabicyclo[2.2.1]heptan-2-yl)(2-(1-(cyclopropylmethyl)-6-((R)-3-hydroxypiperidin-1-yl)-1H-pyrrolo[2,3-b]pyridin-2-yl)-3-methylpyrazolo[1,5-a]pyridin-6-yl)methanone]
- IC50: 143 nM

Compound: COC1CN(c2ccc3cc(-c4nn5cc(C(=O)N6CC7CCC6[C@@H]7N)ccc5c4C)n(CC4CC4)c3n2)C1 (stereo partly drawn) [Example 79, ((7R)-7-Amino-2-azabicyclo[2.2.1]heptan-2-yl)(2-(1-(cyclopropylmethyl)-6-(3-methoxyazetidin-1-yl)-1H-pyrrolo[2,3-b]pyridin-2-yl)-3-methylpyrazolo[1,5-a]pyridin-6-yl)methanone]
- IC50: 212 nM

Compound: Cc1c(-c2cc3cccnc3n2CC2CC2)nn2cc(C(=O)N3C[C@H](N)C[C@@H](F)C3)ccc12 [Example 80, ((3R,5R)-3-Amino-5-fluoropiperidin-1-yl)(2-(1-(cyclopropylmethyl)-1H-pyrrolo[2,3-b]pyridin-2-yl)-3-methylpyrazolo[1,5-a]pyridin-6-yl)methanone]
- IC50: 1610 nM

Compound: Cc1c(-c2cc3ccc(-c4ccc5c(c4)CNC5=O)nc3n2CC2CC2)nn2cc(C(=O)N3C[C@H](N)C[C@@H](F)C3)ccc12 [Example 81, 5-(2-(6-((3R,5R)-3-Amino-5-fluoropiperidine-1-carbonyl)-3-methylpyrazolo[1,5-a]pyridin-2-yl)-1-(cyclopropylmethyl)-1H-pyrrolo[2,3-b]pyridin-6-yl)isoindolin-1-one]
- IC50: 384 nM

Compound: Cc1ccc2cc(-c3nn4cc(C(=O)N5C[C@H](N)C[C@@H](F)C5)ccc4c3C)n(CC3CC3)c2n1 [Example 82, ((3R,5R)-3-Amino-5-fluoropiperidin-1-yl)(2-(1-(cyclopropylmethyl)-6-methyl-1H-pyrrolo[2,3-b]pyridin-2-yl)-3-methylpyrazolo[1,5-a]pyridin-6-yl)methanone]
- IC50: 368 nM

Compound: Cc1c(-c2cc3ccc(-c4ccc5c(c4)C(=O)NC5)nc3n2CC2CC2)nn2cc(C(=O)N3C[C@H](N)C[C@@H](F)C3)ccc12 [Example 83, 6-(2-(6-((3R,5R)-3-Amino-5-fluoropiperidine-1-carbonyl)-3-methylpyrazolo[1,5-a]pyridin-2-yl)-1-(cyclopropylmethyl)-1H-pyrrolo[2,3-b]pyridin-6-yl)isoindolin-1-one]
- IC50: 384 nM

Compound: Cc1c(-c2cc3ccc(-c4ccc(C(N)=O)c(F)c4)nc3n2CC2CC2)nn2cc(C(=O)N3C[C@H](N)C[C@@H](F)C3)ccc12 [Example 84, 4-(2-(6-((3R,5R)-3-Amino-5-fluoropiperidine-1-carbonyl)-3-methylpyrazolo[1,5-a]pyridin-2-yl)-1-(cyclopropylmethyl)-1H-pyrrolo[2,3-b]pyridin-6-yl)-2-fluorobenzamide]
- IC50: 610 nM

Compound: Cc1c(-c2cc3ccc(-c4ccc(C(N)=O)c(Cl)c4)nc3n2CC2CC2)nn2cc(C(=O)N3C[C@H](N)C[C@@H](F)C3)ccc12 [Example 85, 4-(2-(6-((3R,5R)-3-Amino-5-fluoropiperidine-1-carbonyl)-3-methylpyrazolo[1,5-a]pyridin-2-yl)-1-(cyclopropylmethyl)-1H-pyrrolo[2,3-b]pyridin-6-yl)-2-chlorobenzamide]
- IC50: 327 nM

Compound: Cc1c(-c2cc3ccc(-c4cccc(O)c4F)nc3n2CC2CC2)nn2cc(C(=O)N3C[C@H](N)C[C@@H](F)C3)ccc12 [Example 86, ((3R,5R)-3-Amino-5-fluoropiperidin-1-yl)(2-(1-(cyclopropylmethyl)-6-(2-fluoro-3-hydroxyphenyl)-1H-pyrrolo[2,3-b]pyridin-2-yl)-3-methylpyrazolo[1,5-a]pyridin-6-yl)methanone]
- IC50: 219 nM

Compound: COC1CCN(c2ccc3cc(-c4nn5cc(C(=O)N6C[C@H](N)C[C@@H](F)C6)ccc5c4C)n(CC4CC4)c3n2)CC1 [Example 87, ((3R,5R)-3-Amino-5-fluoropiperidin-1-yl)(2-(1-(cyclopropylmethyl)-6-(4-methoxypiperidin-1-yl)-1H-pyrrolo[2,3-b]pyridin-2-yl)-3-methylpyrazolo[1,5-a]pyridin-6-yl)methanone]
- IC50: 2320 nM

Compound: Cc1c(-c2cc3ccc(N4CCC(O)CC4)nc3n2CC2CC2)nn2cc(C(=O)N3C[C@H](N)C[C@@H](F)C3)ccc12 [Example 88, ((3R,5R)-3-Amino-5-fluoropiperidin-1-yl)(2-(1-(cyclopropylmethyl)-6-(4-hydroxypiperidin-1-yl)-1H-pyrrolo[2,3-b]pyridin-2-yl)-3-methylpyrazolo[1,5-a]pyridin-6-yl)methanone]
- IC50: 1680 nM

Compound: Cc1c(-c2cc3ccc(-c4ccc5c(c4)C(=O)NC5)cc3n2CC2CC2)nn2cc(C(=O)N3CC4CCC3[C@@H]4N)ccc12 (stereo partly drawn) [Example 89, 6-(2-(6-((7R)-7-Amino-2-azabicyclo[2.2.1]heptane-2-carbonyl)-3-methylpyrazolo[1,5-a]pyridin-2-yl)-1-(cyclopropylmethyl)-1H-indol-6-yl)isoindolin-1-one]
- IC50: 48 nM

Compound: Cc1c(-c2cc3ccc(-c4ccc5c(c4)CNC5=O)cc3n2CC2CC2)nn2cc(C(=O)N3CC4CCC3[C@@H]4N)ccc12 (stereo partly drawn) [Example 90, 5-(2-(6-((7R)-7-Amino-2-azabicyclo[2.2.1]heptane-2-carbonyl)-3-methylpyrazolo[1,5-a]pyridin-2-yl)-1-(cyclopropylmethyl)-1H-indol-6-yl)isoindolin-1-one]
- IC50: 12 nM

Compound: Cc1c(-c2cc3ccc(N4CC(F)(CO)C4)cc3n2CC2CC2)nn2cc(C(=O)N3CC4CCC3[C@@H]4N)ccc12 (stereo partly drawn) [Example 91, ((7R)-7-Amino-2-azabicyclo[2.2.1]heptan-2-yl)(2-(1-(cyclopropylmethyl)-6-(3-fluoro-3-(hydroxymethyl)azetidin-1-yl)-1H-indol-2-yl)-3-methylpyrazolo[1,5-a]pyridin-6-yl)methanone]
- IC50: 602 nM

Compound: Cc1c(-c2cc3ccc(-c4cccc(O)c4F)cc3n2CC2CC2)nn2cc(C(=O)N3C[C@H](N)C[C@@H](F)C3)ccc12 [Example 92, ((3R,5R)-3-Amino-5-fluoropiperidin-1-yl)(2-(1-(cyclopropylmethyl)-6-(2-fluoro-3-hydroxyphenyl)-1H-indol-2-yl)-3-methylpyrazolo[1,5-a]pyridin-6-yl)methanone]
- IC50: 672 nM

Compound: Cc1c(-c2cc3ccc(-c4ccc(C(N)=O)c(F)c4)cc3n2CC2CC2)nn2cc(C(=O)N3C[C@H](N)C[C@@H](F)C3)ccc12 [Example 93, 4-(2-(6-((3R,5R)-3-Amino-5-fluoropiperidine-1-carbonyl)-3-methylpyrazolo[1,5-a]pyridin-2-yl)-1-(cyclopropylmethyl)-1H-indol-6-yl)-2-fluorobenzamide]
- IC50: 220 nM

Compound: Cc1c(-c2cc3ccc(-c4ccc(O)c(F)c4)cc3n2CC2CC2)nn2cc(C(=O)N3C[C@H](N)C[C@@H](F)C3)ccc12 [Example 94, ((3R,5R)-3-Amino-5-fluoropiperidin-1-yl)(2-(1-(cyclopropylmethyl)-6-(3-fluoro-4-hydroxyphenyl)-1H-indol-2-yl)-3-methylpyrazolo[l,5-a]pyridin-6-yl)methanone]
- IC50: 934 nM

Compound: Cc1c(-c2cc3ccc(-c4ccc5c(c4)CNC5=O)cc3n2CC2CC2)nn2cc(C(=O)N3C[C@H](N)C[C@@H](F)C3)ccc12 [Example 95, 5-(2-(6-((3R,5R)-3-Amino-5-fluoropiperidine-1-carbonyl)-3-methylpyrazolo[1,5-a]pyridin-2-yl)-1-(cyclopropylmethyl)-1H-indol-6-yl)isoindolin-1-one]
- IC50: 133 nM

Compound: Cc1c(-c2cc3ccc(-c4ccc5c(c4)C(=O)NC5)cc3n2CC2CC2)nn2cc(C(=O)N3C[C@H](N)C[C@@H](F)C3)ccc12 [Example 96, 6-(2-(6-((3R,5R)-3-Amino-5-fluoropiperidine-1-carbonyl)-3-methylpyrazolo[1,5-a]pyridin-2-yl)-1-(cyclopropylmethyl)-1H-indol-6-yl)isoindolin-1-one]
- IC50: 588 nM

Compound: COc1cc(C(=O)N2C[C@H](N)C[C@@H](F)C2)cn2nc(-c3cc4ccc(C(C)(C)O)cc4n3CC3CC3)c(C)c12 [Example 98, ((3R,5R)-3-Amino-5-fluoropiperidin-1-yl)(2-(1-(cyclopropylmethyl)-6-(2-hydroxypropan-2-yl)-1H-indol-2-yl)-4-methoxy-3-methylpyrazolo[1,5-a]pyridin-6-yl)methanone]
- IC50: 14 nM

Compound: COc1cc(C(=O)N2C[C@H](N)C[C@@H](F)C2)cn2nc(-c3cc4ccc(C(C)(O)C(F)(F)F)cc4n3CC3CC3)c(C)c12 (stereo partly drawn) [Example 99, ((3R,5R)-3-Amino-5-fluoropiperidin-1-yl)(2-(1-(cyclopropylmethyl)-6-(1,1,1-trifluoro-2-hydroxypropan-2-yl)-1H-indol-2-yl)-4-methoxy-3-methylpyrazolo[1,5-a]pyridin-6-yl)methanone]
- IC50: 307 nM

Compound: Cc1c(-c2cc3ccc(C(C)(C)O)cc3n2CC2CC2)nn2cc(C(=O)N3CC4CCC3[C@@H]4N)ccc12 (stereo partly drawn) [Example 100, ((7R)-7-Amino-2-azabicyclo[2.2.1]heptan-2-yl)(2-(1-(cyclopropylmethyl)-6-(2-hydroxypropan-2-yl)-1H-indol-2-yl)-3-methylpyrazolo[1,5-a]pyridin-6-yl)methanone]
- IC50: 36 nM

Compound: Cc1c(-c2cc3ccc(C(C)(O)C(F)(F)F)cc3n2CC2CC2)nn2cc(C(=O)N3CC4CCC3[C@@H]4N)ccc12 (stereo partly drawn) [Example 101, ((7R)-7-Amino-2-azabicyclo[2.2.1]heptan-2-yl)(2-(1-(cyclopropylmethyl)-6-(1,1,1-trifluoro-2-hydroxypropan-2-yl)-1H-indol-2-yl)-3-methylpyrazolo[1,5-a]pyridin-6-yl)methanone]
- IC50: 11 nM

Source: patent publication US12473304B2, “Heterocyclic PAD4 inhibitors” (BRISTOL-MYERS SQUIBB COMPANY, priority 2020, dated 2025)
